Test results as given in patent US20220119447A1, “PEPTIDE AND FOR TREATING INFLAMMATORY DISEASE AND PAIN USING THE SAME” (PELL BIO-MED TECHNOLOGY CO., LTD., priority 2019, published 2022).
Non-standard residues stand in square brackets, D forms with d. Residues, ends and D or L forms follow the SMILES beside them. pGlu = O=C1CC[C@@H](C(=O)O)N1

Legend:
C57BL/6JNarl male mice [1] = experiment: Acid-induced abdominal constriction (writhing) assay; assay type: in vivo; settings: oral doses of 1 μg/kg and 10 mg/kg, among 0.1 μg/kg to 10 mg/kg tested; 10 min before 1% acetic acid; FIG. 9
Procedure: (§1) For conducting nociceptive pain and acid-induced chronic widespread pain experiments, C57BL/6JNarl male mice (20 to 25 g) were housed in an environment with temperature control (24±0.5° C.) and 12-hour light-dark cycle (lights on during 08:00-20:00) and allowed free access to standard laboratory food and tap water. Animals were allowed to acclimatize for 20 to 30 min prior to experimental manipulations. Animal care and handling procedures were adopted in accordance with the International Association for the Study of Pain guidelines for those animals used in pain research, and the procedures were approved by the Committee for Ethics in Animal Research.
Acid-induced abdominal constriction assay was performed in accordance with H. O. Collier, L. C. Dinneen, C. A. Johnson, C. Schneider, The abdominal constriction response and its suppression by analgesic drugs in the mouse. Br J Pharmacol Chemother 32, 295-310 (1968). In general, the mice from Preparation Example 3 were placed in a small observation chamber and habituated for 20 min. […] The numbers of abdominal constrictions in 30 min after acid injection were counted and the mean constriction numbers of mice of each group were calculated. […]

[2] = system: CFA-induced arthritis ICR mice; experiment: Paw withdraw threshold (von Frey Filament) over time after single oral administration in CFA-induced arthritis mice; settings: for time after administration of best antinociceptive effect: oral, peptide 3 mg/kg, morphine 10 mg/kg, PWT at 0, 30, 60, 90, 120 min, effect started to decrease at 120 min
[3] = system: CFA-induced arthritis ICR mice; experiment: Paw withdraw threshold (von Frey Filament) on weekly oral administration, 4th to 12th week, in CFA-induced arthritis mice; assay type: in vivo; settings: 1 mg/kg oral once a week, 90 min after administration, increased from 0.4 g at 3rd week, FIG. 6
Source text: Two dosage groups both contained 6 mice. […] The control group also contained 6 mice.

[4] = system: CFA-induced arthritis ICR mice; experiment: Paw withdraw threshold (von Frey Filament) after low oral doses (μg/kg) in CFA-induced arthritis mice; assay type: in vivo; settings: 90 min after administration; for PWT value of ipsilateral hind paw: rose from 0.065 g, FIG. 7; for PWT value of contralateral paw: rose from 0.32 g, FIG. 8
Source text: Every dosage group contained 6 mice.

TNF-α = experiment: Serum TNF-α by ELISA in CFA-induced arthritis mice after weekly oral administration; assay type: in vivo; settings: 3 mg/kg oral once a week, 4th to 12th week; serum on 12th week; FIG. 1
Procedure: (§2) On the other hand, the mice administered with water were served as the control group, which also comprised 6 mice. The mice in the experimental group and the control group were sacrificed on the 12th week after administration. The serum collection is conducted by cardiac puncture. The Mouse TNF-α Quantikine ELISA Kit (R&D System, MTA00B), Mouse IL-6 Quantikine ELISA Kit (R&D System, M600B) and enzyme-linked immunosorbent assay (ELISA) were used to determine and collect the serum concentration of TNF-α and IL-6 of mice in the experimental group and the control group.

IL-6 = experiment: Serum IL-6 by ELISA in CFA-induced arthritis mice after weekly oral administration; assay type: in vivo; settings: 3 mg/kg oral once a week, 4th to 12th week; serum on 12th week; vs control group; FIG. 2
Procedure: as §2

C57BL/6JNarl male mice [5] = experiment: Radiant heat tail-flick test; assay type: in vivo; settings: oral doses of 0.1 μg/kg, 0.3 μg/kg, 0.1 mg/kg, 1 mg/kg, 3 mg/kg and 10 mg/kg, among 0.01 μg/kg to 10 mg/kg tested; mean latency 10-90 min; FIG. 9
Procedure: as §1
The radiant heat tail-flick test was modified in accordance with F. E. D'Amour, D. L. Smith, A method for determining loss of pain sensation. The Journal of Pharmacology and Experimental Therapeutics 72, 74-79 (1941). The 5 to 12 mice from Preparation Example 3 were placed and acclimatized in the restrainers for 30 min prior to the tail-flick test. […] The latency was recorded every 10 min during the indicated time period (10-90 min) after oral administration with different dosages of the peptide of SEQ ID NO: 1 (0.01 μg/kg, 0.03 μg/kg, 0.1 μg/kg, 0.3 μg/kg, 1 μg/kg, 0.01 mg/kg, 0.1 mg/kg, 1 mg/kg, 3 mg/kg, and 10 mg/kg). Then the mean latency during 10-90 min was calculated. […]

Row | SMILES | antinociceptive effect in the acid-induced writhing experiment (C57BL/6JNarl male mice [1]) | time after administration of best antinociceptive effect [2] [min] | antinociceptive effect compared with morphine ([2]; peptide 3 mg/kg oral vs morphine 10 mg/kg oral, a lower amount was required) | PWT value of ipsilateral hind paw ([2]; peptide 3 mg/kg oral, at 90 min, rose from 0.07 g, FIG. 3) [g] | PWT value of contralateral paw ([2]; peptide 3 mg/kg oral, at 90 min, rose from 0.5±0.047 g, FIG. 4) [g] | PWT value of contralateral paw [3] | PWT value of ipsilateral hind paw ([4]; 0.3 μg/kg oral) [g] | PWT value of contralateral paw ([4]; 0.3 μg/kg oral) [g] | PWT value of ipsilateral hind paw ([4]; 1 μg/kg oral) [g] | PWT value of contralateral paw ([4]; 1 μg/kg oral) [g] | PWT value of ipsilateral hind paw ([4]; 3 μg/kg oral) [g] | PWT value of contralateral paw ([4]; 3 μg/kg oral) [g] | serum concentration of TNF-α (TNF-α) | serum concentration of IL-6 (IL-6) | antinociceptive effect in the radiant heat tail-flick test (C57BL/6JNarl male mice [5])
1 | CC(C)[C@H](NC(=O)[C@H](C)NC(=O)[C@@H](NC(=O)[C@H](CCC(=O)O)NC(=O)[C@@H]1CCC(=O)N1)[C@@H](C)O)C(=O)N[C@@H](CO)C(=O)N[C@@H](CO)C(=O)N[C@@H](Cc1c[nH]cn1)C(=O)N[C@@H](CCC(=O)O)C(=O)N[C@@H](CCC(N)=O)C(=O)N[C@@H](CC(=O)O)C(=O)O [peptide of SEQ ID NO: 1, Glp Glu Thr Ala Val Ser Ser His Glu Gln Asp] ([pGlu]ETAVSSHEQD-OH) | best antinociceptive effect | 90 | antinociceptive effect similar to morphine | 0.9 ± 0.156 | 1.35 ± 0.193 | 0.6˜1.2 g | 1 | 1 | 0.6 | 1.4 | 0.16 | 1 | not detected | decreased compared to the control group | best antinociceptive effect
2 | CN1CC[C@]23c4c5ccc(O)c4O[C@H]2[C@@H](O)C=C[C@H]3[C@H]1C5 [morphine, reference compound] |  | 90 |  |  |  |  |  |  |  |  |  |  |  |  | 
